# Read-outs that look alike come from different tables or passages of the source. Ends that are not written are not given here. Peptide text beside a SMILES is read from it.
# What was measured:
# F. graminearum hyphae [1] = assay type: cell-based, Fusarium graminearum
# Aspergillus flavus = assay type: cell-based
# F. graminearum hyphae [2] = assay type: cell-based, Fusarium graminearum; remark: listed apart in the source
# [3] = PH-1 conidia, microscopic observation after overnight (16 hours) incubation
# [4] = F. graminearum PH-1, SFM without calcium
# [5] = PH-1, all concentrations tested
compound,measurement,setting,value
RTCESQSHKFKGPCASDHNCASVCQTERFSGGRCRGFRRRCFCTTHC (also: bicyclic or more (positions not given here)) [MtDef4],SYTOX Green uptake (in words),F. graminearum hyphae [1],increased in a concentration dependant manner
same,time to start of SG uptake after addition of defensin,F. graminearum hyphae [1],≤ 5 min
same,"maximum SYTOX Green fluorescence at 6 µM, 5 hours","F. graminearum hyphae [1]; 6 µM, 5 hours",702±10 units
same,growth inhibition of A. flavus at 48 µM,Aspergillus flavus,approximately 75%
same,hyphal morphology compared with untreated control hyphae,F. graminearum hyphae [2],no difference
same,IC100: amount of protein required to inhibit F. graminearum conidial germination completely,F. graminearum PH-1,1.5 to 2.5 µM
same,concentration giving complete inhibition of conidial germination (IC100),F. graminearum PH-1,1.5 µM
same,fungal growth inhibition at 1.5 µM,F. graminearum PH-1; 1.5 µM,100%
same,IC50,F. graminearum PH-1; read-out: IC50: amount of protein required for inhibiting 50% growth of F. graminearum,0.75 to 1 µM
C[C@H](NC(=O)[C@H](Cc1ccccc1)NC(=O)CNC(=O)[C@@H](N)CCCNC(=N)N)C(=O)N[C@@H](CCCNC(=N)N)C(=O)N[C@@H](CCCNC(=N)N)C(=O)O [GMA4-L2] (H-RGFARR-OH; N-terminus and C-terminus assumed),SYTOX Green uptake (in words),F. graminearum hyphae [1],failed to induce any uptake
same,IC100: amount of protein required to inhibit F. graminearum conidial germination completely,F. graminearum PH-1,>96 µM
same,"growth inhibition at 24 µM, 16 hours (in words)",F. graminearum PH-1,mild growth inhibition
same,growth inhibition at 96 µM,"F. graminearum PH-1; PH-1, 16 h",30–40%
same,IC50,"F. graminearum PH-1; PH-1, 36 h",> 96 µM
N=C(N)NCCC[C@H](NC(=O)CN)C(=O)N[C@@H](CS)C(=O)N[C@@H](CCCNC(=N)N)C(=O)NCC(=O)N[C@@H](Cc1ccccc1)C(=O)N[C@@H](CCCNC(=N)N)C(=O)N[C@@H](CCCNC(=N)N)C(=O)N[C@@H](CCCNC(=N)N)C(=O)N[C@@H](CS)C(=O)O [GMA4] (H-GRCRGFRRRC-OH; N-terminus and C-terminus assumed),concentration giving complete inhibition of conidial germination (IC100),F. graminearum PH-1; PH-1 conidia,12 µM
same,lowest concentration at which antifungal activity / growth inhibition was evident,F. graminearum PH-1; [3],6 µM
C[C@H](NC(=O)[C@H](CS)NC(=O)[C@@H]1CCCN1C(=O)CN)C(=O)N[C@@H](CO)C(=O)N[C@@H](CC(=O)O)C(=O)N[C@@H](Cc1c[nH]cn1)C(=O)N[C@@H](CC(N)=O)C(=O)N[C@@H](CS)C(=O)O [ALP4] (H-GPCASDHNC-OH; N-terminus and C-terminus assumed),antifungal activity at 48 µM (in words),F. graminearum PH-1; PH-1,no antifungal activity
same,IC100: amount of protein required to inhibit F. graminearum conidial germination completely,F. graminearum PH-1; [4],>48 µM
same,antifungal activity (in words),F. graminearum PH-1; [5],totally inactive
C[C@@H](O)[C@H](NC(=O)[C@H](CS)NC(=O)[C@H](Cc1c[nH]c2ccccc12)NC(=O)[C@H](CS)NC(=O)[C@H](CCCNC(=N)N)NC(=O)[C@H](Cc1ccccc1)NC(=O)[C@H](CC(=O)O)NC(=O)[C@H](CC(=O)O)NC(=O)[C@H](CCCNC(=N)N)NC(=O)[C@H](CS)NC(=O)[C@H](CCCNC(=N)N)NC(=O)CN)C(=O)N[C@@H](CCCCN)C(=O)N[C@@H](CCCNC(=N)N)C(=O)N[C@@H](CS)C(=O)O [GMA1-C] (H-GRCRDDFRCWCTKRC-OH; N-terminus and C-terminus assumed),SG uptake at 24 µM relative to that induced by GMA4-C,F. graminearum hyphae [1]; 24 µM,twice
same,IC100: amount of protein required to inhibit F. graminearum conidial germination completely,F. graminearum PH-1; [4],24 µM
same,hyperbranching of fungal hyphae,"F. graminearum PH-1; PH-1, microscopy after 16 hours",did not cause hyperbranching
same,concentration giving complete inhibition of conidial germination (IC100),F. graminearum PH-1; PH-1 conidia,24 µM
same,lowest concentration at which antifungal activity / growth inhibition was evident,F. graminearum PH-1; [3],6 µM
C[C@@H](O)[C@H](NC(=O)[C@H](CS)NC(=O)[C@H](Cc1ccccc1)NC(=O)[C@H](CS)NC(=O)[C@H](CCCNC(=N)N)NC(=O)[C@H](CCCNC(=N)N)NC(=O)[C@H](CCCNC(=N)N)NC(=O)[C@H](Cc1ccccc1)NC(=O)CNC(=O)[C@H](CCCNC(=N)N)NC(=O)[C@H](CS)NC(=O)[C@H](CCCNC(=N)N)NC(=O)CN)C(=O)N[C@H](C(=O)N[C@@H](Cc1c[nH]cn1)C(=O)N[C@@H](CS)C(=O)O)[C@@H](C)O [GMA4-C] (H-GRCRGFRRRCFCTTHC-OH; N-terminus and C-terminus assumed),IC100: amount of protein required to inhibit F. graminearum conidial germination completely,F. graminearum PH-1,6 µM
same,concentration giving complete inhibition of conidial germination (IC100),F. graminearum PH-1,6 µM
same,lowest concentration at which antifungal activity / growth inhibition was evident,F. graminearum PH-1,1.5 µM
same,fungal growth inhibition at 3 µM,"F. graminearum PH-1; PH-1, 16 h, 3 µM",70±9%
same,IC50,"F. graminearum PH-1; PH-1, 36 h",3 µM
C[C@H](NC(=O)CNC(=O)[C@@H](N)CCCNC(=N)N)C(=O)N[C@@H](CCCNC(=N)N)C(=O)N[C@@H](CCCNC(=N)N)C(=O)N[C@@H](CCCNC(=N)N)C(=O)O [GMA4-L1] (H-RGARRR-OH; N-terminus and C-terminus assumed),SYTOX Green uptake at 24 µM,F. graminearum hyphae [1]; 24 µM,> 100 fluorescence units
same,IC100: amount of protein required to inhibit F. graminearum conidial germination completely,F. graminearum PH-1,>96 µM
same,"growth inhibition at 24 µM, 16 hours (in words)",F. graminearum PH-1,mild growth inhibition
same,growth inhibition at 96 µM,"F. graminearum PH-1; PH-1, 16 h",30–40%
same,IC50,"F. graminearum PH-1; PH-1, 36 h",> 96 µM
NCC(=O)N1CCC[C@H]1C(=O)N[C@@H](CS)C(=O)N[C@@H](Cc1ccccc1)C(=O)N[C@@H](CO)C(=O)NCC(=O)N[C@@H](CS)C(=O)O [ALP1] (H-GPCFSGC-OH; N-terminus and C-terminus assumed),antifungal activity at 48 µM (in words),F. graminearum PH-1; PH-1,no antifungal activity
same,IC100: amount of protein required to inhibit F. graminearum conidial germination completely,F. graminearum PH-1; [4],>48 µM
same,antifungal activity (in words),F. graminearum PH-1; [5],totally inactive
N=C(N)NCCC[C@H](NC(=O)[C@H](CCCNC(=N)N)NC(=O)[C@H](CCCNC(=N)N)NC(=O)[C@H](Cc1ccccc1)NC(=O)CNC(=O)[C@@H](N)CCCNC(=N)N)C(=O)O [GMA4-L] (H-RGFRRR-OH),fungal growth inhibition at 12 µM,"F. graminearum PH-1; PH-1, 16 h, 12 µM",100%
same,IC50,"F. graminearum PH-1; PH-1, 36 h",4 µM
same,fungal growth inhibition at 6 µM,"F. graminearum PH-1; PH-1, 36 h, 6 µM",91±7%
N=C(N)NCCC[C@H](NC(=O)[C@H](Cc1ccccc1)NC(=O)[C@H](CC(=O)O)NC(=O)[C@H](CC(=O)O)NC(=O)[C@@H](N)CCCNC(=N)N)C(=O)O [GMA1-L] (H-RDDFR-OH; N-terminus and C-terminus assumed),SYTOX Green uptake (in words),F. graminearum hyphae [1],failed to induce any uptake
same,IC100: amount of protein required to inhibit F. graminearum conidial germination completely,F. graminearum PH-1,>96 µM
same,antifungal activity (in words),F. graminearum PH-1,no antifungal activity
same,antifungal activity at 96 µM (in words),F. graminearum PH-1,inactive
same,IC50,"F. graminearum PH-1; PH-1, 36 h",> 96 µM
N=C(N)NCCC[C@H](NC(=O)CN)C(=O)N[C@@H](CS)C(=O)N[C@@H](CCCNC(=N)N)C(=O)N[C@@H](CC(=O)O)C(=O)N[C@@H](CC(=O)O)C(=O)N[C@@H](Cc1ccccc1)C(=O)N[C@@H](CCCNC(=N)N)C(=O)N[C@@H](CS)C(=O)O [GMA1] (H-GRCRDDFRC-OH; N-terminus and C-terminus assumed),antifungal activity at 48 µM (in words),F. graminearum PH-1; PH-1,no antifungal activity
same,antifungal activity at 96 µM (in words),F. graminearum PH-1; PH-1,failed to show any antifungal activity
same,IC100: amount of protein required to inhibit F. graminearum conidial germination completely,F. graminearum PH-1; [4],>192 µM
same,antifungal activity (in words),F. graminearum PH-1; [5],inactive
